For data set [1], the target named is T1, 5-HT1A receptor (Rattus norvegicus, UniProt P19327).
T1 sequence (P19327 1-422): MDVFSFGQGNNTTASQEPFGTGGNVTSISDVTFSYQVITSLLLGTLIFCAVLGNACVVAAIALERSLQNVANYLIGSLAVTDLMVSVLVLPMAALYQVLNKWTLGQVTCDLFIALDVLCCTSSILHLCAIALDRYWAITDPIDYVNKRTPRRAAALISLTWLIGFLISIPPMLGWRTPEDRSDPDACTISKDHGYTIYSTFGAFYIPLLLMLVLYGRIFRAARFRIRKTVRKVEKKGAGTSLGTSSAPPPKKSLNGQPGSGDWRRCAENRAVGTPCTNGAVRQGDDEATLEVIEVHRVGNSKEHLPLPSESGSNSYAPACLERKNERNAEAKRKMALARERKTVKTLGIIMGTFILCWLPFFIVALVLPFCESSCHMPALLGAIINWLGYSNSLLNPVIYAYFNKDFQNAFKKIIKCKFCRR
As to the kind of experiment: Affinity for 5-HT1A receptors by displacement of (3H)8-OH-DPAT. More on the design: from tissue; host or cells: rat cerebral cortex membrane homogenate. Conditions: for Ki: rat cerebral cortex, (3H)8-OH-DPAT displacement, read-out: pKi 5-HT1A (converted); for Selectivity 5-HT1A/D2: ratio of the affinity constants (Ki) D2/Ki (5-HT1A). The format is binding. The method, then: 1—Measurement of the Affinity of the Compounds of the Invention for the 5-HT1A Receptors
The in vitro affinity of the compounds of the invention for 5-HT1A receptors was determined by measuring the displacement of (^3H)8-OH-DPAT (TRK 850; 160-240 Ci/mmol).
The study of the binding to the 5-HT1A receptor is carried out as described by Sleight and Peroutka (Naunyn-Schmiedeberg's Arch. Pharmaco., 1991, 343, 106). Rat cerebral cortices are used for these experiments. After thawing the brain in 50 mmol Tris-HCl buffer pH=7.40 at 25° C., the cerebral cortex is removed and homogenized in 20 volumes of buffer maintained at 4°C. The homogenate is centrifuged at 39,000×g for 10 minutes and the centrifugation pellet is suspended in the same volume of buffer and centrifuged again. After resuspending under the same conditions, the homogenate is incubated for 10 minutes at 37° C. and then centrifuged again. The final pellet is suspended in cold 50 mmol Tris-HCl reaction buffer, pH=7.40 at 25° C., containing 10 mmol of pargyline, 4 mmol of CaCl2 and 0.10% ascorbic acid. The final concentration of tissue in the incubation medium is 10 mg/tube.
The reaction tubes contain 0.10 ml of (^3H)8-OH-DPAT ([…]), 0.10 ml of test product 6-7 concentrations and 0.80 ml of tissue. The nonspecific binding is defined using 10 mmol of 5-HT. The reaction tubes are incubated at 23° C. for 30 minutes and their contents are then rapidly filtered under vacuum through Whatman GF/B filters and the tubes are rinsed with twice 5 ml of 50 mmol Tris-HCl buffer, pH=7.4 at 25° C. The radioactivity collected on the filter is analyzed by liquid scintillation by adding 4 ml of liquid scintillant (Emulsifier Safe, Packard). All the experiments are carried out in triplicate.
The inhibition constants (Ki) of the products of the invention are estimated from the displacement experiments using the nonlinear regression program RADLIG version 4 from EBDA (Equilibrium Binding Data Analysis) (Biosoft, Cambridge, UK, McPherson, 1985). The dissociation constants of the radioactive ligands used in the calculations are […] for (^3H)8-OH-DPAT and 0.036 mmol for (^3H)YM-09151-2. The pKi (−logKi) values are given in the form of the mean±SEM of at least 3 experiments.

The target in data set [2] is T1, 5-HT1A receptor. As to the kind of experiment: 5-HT1A receptor agonist activity in vivo: lower lip retraction (LLR) after oral administration. Details: Male Sprague Dawley rats (ICO:OFAD [IOPS], Iffa Credo, France); from tissue; host or cells: whole animal, male Sprague Dawley rats, oral dosing. Conditions: rats, observed t55 to t65 min, doses as base weight, read-out: LLR p.o. ED50. The text has this: 3—Evaluation of the 5-HT1A Receptor Agonist Activity of the Compounds of the Invention In Vivo.
Male Sprague Dawley rats (ICO:OFAD [IOPS], Iffa Credo, France), weighing 160-180 g on arrival and 180-200 g at the start of the tests, are used. The animals are placed in quarantine for 4 to 8 days with free access to standardized laboratory food, before being used in the experiments. The animals are housed individually in plastic cages on cage holders (28 cm×21 cm×18 cm) with a grille floor (RC Iffa Credo), 24 hours before the tests. By means of an automatic dispenser, water filtered through a 0.22 μm filter is freely available. The quarantine area and the experiment laboratory are air conditioned (temperature: 22±1° C.; relative humidity: 55±5%) and illuminated from 7 a.m. to 7 p.m. All the rats are treated according to the ethics for laboratory animals (Guide for the Care and Use of Laboratory Animals, U.S. Department of Agriculture, Public Health Service, National Institutes of Health publication No. 85-23, Revised 1985) and the protocol (No. 15) is carried out in accordance with the recommendations of the local research animals ethics committee. […]
The behavior of the animal is observed for a period of 10 minutes each, centered at t60 minutes, after oral administration. […] The products are administered in a volume of 10 ml/kg and the doses are expressed as base weight. […]

Counter-ions that a name gives are not always drawn.

As for `O=C(c1ccc(F)c(Cl)c1)N1CCC(F)(CNCCc2ccccn2)CC1` (as salt: oxalate) [Example 1, (3-Chloro-4-fluorophenyl){4-fluoro-4-[(2-pyrid-2-ylethylamino)methyl]-l-piperidyl}methanone], the melting point (as a rule, the temperature of the solid-liquid transition) is 172 to 174 °C.
Compound `O=C(c1ccc(Cl)c(Cl)c1)N1CCC(F)(CNCCc2ccccn2)CC1` (as salt: oxalate) [Example 2, (3,4-Dichlorophenyl){4-fluoro-4-[(2-pyrid-2-ylethylamino)methyl]-1-piperidyl}methanone] gave a melting point of 192 to 194 °C.
Consider `O=C(c1ccc(F)c(Cl)c1)N1CCC(F)(CNCCc2ccccn2)CC1` [Example 1, (3-Chloro-4-fluorophenyl){4-fluoro-4-[(2-pyrid-2-ylethylamino)methyl]-l-piperidyl}methanone], for which, on 5-HT1A receptor [1], the Ki was 0.155 nM and the “Selectivity 5-HT1A/D2” value was 4 266. The ED50 (as a rule, the dose that gives a 50% effect, or the effect in half of the subjects) on 5-HT1A receptor [2] was 0.31 mg/kg.
As for `O=C(c1ccc(Cl)c(Cl)c1)N1CCC(F)(CNCCc2ccccn2)CC1` [Example 2, (3,4-Dichlorophenyl){4-fluoro-4-[(2-pyrid-2-ylethylamino)methyl]-1-piperidyl}methanone], at 5-HT1A receptor [1], the Ki was 0.38 nM and the “Selectivity 5-HT1A/D2” value is listed as 1 318. Besides, the ED50 on 5-HT1A receptor [2] is 0.31 mg/kg.

The record behind these values is US6448268B1, “Aryl-{4-fluoro-4-[(2-pyridin-2-yl-ethylamino)-methyl]-piperidin-1-yl}-methanone derivatives as 5-ht1 receptor antagonists” (Pierre Fabre Medicament, priority 1998, dated 2002).
